{"source": "patent EP4813993A1", "about": "“COMPOUND, PREPARATION METHOD THEREFOR, AND USE THEREOF” (Sichuan Kelun Pharmaceutical Research Institute Co., Ltd., priority 2023, dated 2025)", "key": {"[1]": {"tested_on": "incision pain model", "test": "Incision pain model in SD rats, Von Frey test", "format": "in vivo", "procedure": "Experimental Example 7: Pharmacodynamic effect study of compounds in incision pain model in SD rats\nExperimental animals: SD rats, male, 180-220 g.\n(§1) Compound preparation: 5% (final preparation volume) of DMSO was added to dissolve the test compound, and then 10% (final preparation volume) of Cremophor EL and 85% Saline were sequentially added.\nA plantar incision pain model was established in rats via surgery before the administration and test. Rats were placed in an anesthesia induction chamber and given 3%-4% isoflurane for anesthesia induction. After the anesthesia induction, a breathing mask was applied, and the isoflurane concentration was adjusted to 1%-2% to prevent the rats from suffering pain during the surgery. Each rat was placed in a supine position, and the surgical site was disinfected with alcohol and iodophor. Under sterile conditions, a 0.5 cm longitudinal incision was made on the left hind paw surface, 0.2 cm away from the heel, extending toward the toes. The skin and fascia were incised; the plantar muscle was separated, slightly lifted, and longitudinally incised. The skin was then sutured with 5-0 sutures and disinfected.\n(§2) 2. Administration and test\n(§3) The Von Frey test was performed once before the surgery. On the second day after animal modeling, the test was repeated, and animals meeting the baseline requirements were selected for enrollment. The animals were randomly divided into 6 groups based on the 50% PWT values, with 10 animals per group. Administration was performed under a double-blind test protocol. The 50% PWT of the animals was measured separately before administration (baseline) and at 0.5 h, 2 h, 4 h, 6 h, or 8 h after administration, and a single dose was administered. The model control group was given normal saline, while the compound groups were given the compounds according to the administration doses in the table below."}, "[2]": {"test": "Tissue distribution study (dorsal root ganglia) in ICR mice", "format": "in vivo", "details": "male, mouse, oral administration 20 mg/kg"}, "[3]": {"test": "Tissue distribution study (dorsal root ganglia) in SD rats", "format": "in vivo", "details": "male, rat, oral administration 10 mg/kg", "procedure": "Experimental Example 5: Tissue distribution study of compounds in SD rats\nExperimental animals: SD rats, male, 6-8 weeks old.\nas §1\nExperimental design: The test compounds were administered to SD rats as a single dose via oral administration (10 mg/kg; n = 3, 3 time points). Blood samples were collected at 0.5 h, 2 h, and 6 h after oral administration, followed by sacrifice of the animals. Dorsal root ganglia were collected, rinsed with ice-cold normal saline to remove residual blood, blotted dry with absorbent paper, and stored at -70 °C for analysis.\nSample test: The concentrations of the designated compound drugs in plasma and tissues were determined by the LC-MS/MS method."}, "[4]": {"tested_on": "CFA-induced rat inflammatory pain model", "test": "CFA-induced rat inflammatory pain model, Von Frey test", "format": "in vivo, SD rats", "procedure": "Experimental Example 9: Pharmacodynamic effect study of compounds in CFA-induced rat inflammatory pain model Experimental animals: SD rats, male, 180-220 g.\nCompound preparation: 5% (final preparation volume) of DMSO was added to dissolve the test compound, and then 10% (final preparation volume) of Cremophor EL and 85% Saline were sequentially added; an appropriate amount of Celecoxib was weighed, 5% (final preparation volume) of DMSO was added to dissolve the test compound, and then 5% (final preparation volume) of HS-15 and 90% Saline were sequentially added.\nSD rats were anesthetized with isoflurane. The right hind paw was disinfected, a needle was inserted subcutaneously at the posterior plantar aspect, and 50 µL of complete Freund's adjuvant (CFA, 1 mg/mL) was administered via subcutaneous injection at the midplantar region, with the needle withdrawn slowly while rotating to prevent leakage. After modeling, local redness and swelling of the soles of the feet, difficulty in walking, and lifting of the affected feet were observed.\nas §2\nas §3, with “modeling,” for “modeling, the test was repeated, and”, “and” for “4 h, 6 h, or”, “administration.” for “administration, and a single dose was administered.”"}, "[5]": {"tested_on": "acetic acid writhing model", "test": "Mouse acetic acid writhing model", "format": "in vivo, ICR mice", "details": "for Number of writhing responses / Inhibition rate (%): ICR mice; for Number of writhing responses: 60 min before 0.8% acetic acid i.p., 30 min observation, Mean + SD, n = 10; for Inhibition rate (%): inhibition of writhing responses vs control group"}, "[6]": {"details": "mouse acetic acid writhing model"}}}
{"smiles": "COc1c(C2CC(C)(C(F)(F)F)SC2C(=O)Nc2ccnc(C(N)=O)c2)ccc(F)c1F", "note": "(single isomer, unassigned) [Compound 139-A, 4-(3-(3,4-difluoro-2-methoxyphenyl)-5-methyl-5-(trifluoromethyl)tetrahydrothiophene-2-carboxamido)picolinamide]", "values": [{"measurement": "analgesic activity compared with VX-548", "setting": "[1]; SD rats incision pain model, at the same dose", "value": "better analgesic activity than VX-548"}, {"measurement": "PWT 50% value (g) Post-surgery, Preadministration", "setting": "[1]; SD rats, 125 mg/kg group, baseline before administration, Mean + SEM, n = 10", "value": "3.95 ± 1.12", "unit": "g"}, {"measurement": "PWT 50% value (g) Pre-surgery", "setting": "[1]; SD rats, 125 mg/kg group, baseline before surgery, Mean + SEM, n = 10", "value": "14.4 ± 1.27", "unit": "g"}, {"measurement": "PWT 50% value (g) Time 0.5 h", "setting": "[1]; SD rats, 125 mg/kg single dose, 0.5 h after administration, Mean + SEM, n = 10", "value": "7.46 ± 3.86", "unit": "g"}, {"measurement": "PWT 50% value (g) Time 2 h", "setting": "[1]; SD rats, 125 mg/kg single dose, 2 h after administration, Mean + SEM, n = 10", "value": "10.11 ± 3.83", "unit": "g"}, {"measurement": "PWT 50% value (g) Time 6 h", "setting": "[1]; SD rats, 125 mg/kg single dose, 6 h after administration, Mean + SEM, n = 10", "value": "6.28 ± 2.28", "unit": "g"}, {"measurement": "PWT 50% value (g) Time 8 h", "setting": "[1]; SD rats, 125 mg/kg single dose, 8 h after administration, Mean + SEM, n = 10", "value": "6.29 ± 2.6", "unit": "g"}, {"measurement": "PWT 50% value (g) AUC0-8h", "setting": "[1]; SD rats, 125 mg/kg single dose, Mean + SEM, n = 10", "value": "60.47 ± 11.72", "unit": "g"}, {"measurement": "dose-effect relationship", "setting": "[1]; rat incision pain model", "value": "relatively good dose-effect relationship"}, {"measurement": "concentration at 0.25 h", "setting": "[2]; Time 0.25 h", "value": 1920, "unit": "ng/g"}, {"measurement": "concentration at 2 h", "setting": "[2]; Time 2 h", "value": 9380, "unit": "ng/g"}, {"measurement": "concentration at 12 h", "setting": "[2]; Time 12 h", "value": 2600, "unit": "ng/g"}, {"measurement": "concentration at 0.5 h", "setting": "[3]; Time 0.5 h", "value": 1070, "unit": "ng/g"}, {"measurement": "concentration at 2 h", "setting": "[3]; Time 2 h", "value": 973, "unit": "ng/g"}, {"measurement": "concentration at 6 h", "setting": "[3]; Time 6 h", "value": 549, "unit": "ng/g"}, {"measurement": "analgesic activity compared with the positive control Celecoxib", "setting": "[4]; CFA-induced rat inflammatory pain model", "value": "superior to the positive control Celecoxib"}, {"measurement": "PWT 50% value (g) Post-surgery, Preadministration", "setting": "[4]; SD rats CFA, 125 mg/kg group, baseline before administration, Mean + SEM, n = 10", "value": "3.1 ± 1.12", "unit": "g"}, {"measurement": "PWT 50% value (g) Pre-surgery", "setting": "[4]; SD rats CFA, 125 mg/kg group, baseline before modeling, Mean + SEM, n = 10", "value": "12.61 ± 3.5", "unit": "g"}, {"measurement": "PWT 50% value (g) Time 0.5 h", "setting": "[4]; SD rats CFA, 125 mg/kg, 0.5 h after administration, Mean + SEM, n = 10", "value": "6.78 ± 5.47", "unit": "g"}, {"measurement": "PWT 50% value (g) Time 2 h", "setting": "[4]; SD rats CFA, 125 mg/kg, 2 h after administration, Mean + SEM, n = 10", "value": "6.54 ± 3.06", "unit": "g"}, {"measurement": "PWT 50% value (g) Time 8 h", "setting": "[4]; SD rats CFA, 125 mg/kg, 8 h after administration, Mean + SEM, n = 10", "value": "3.6 ± 1.5", "unit": "g"}, {"measurement": "PWT 50% value (g) AUC0-8h", "setting": "[4]; SD rats CFA, 125 mg/kg, Mean + SEM, n = 10", "value": "40.83 ± 12.03", "unit": "g"}, {"measurement": "Number of writhing responses", "setting": "[5]; Dose 50 mg/kg", "value": "27±18"}, {"measurement": "Inhibition rate (%)", "setting": "[5]; Dose 50 mg/kg", "value": 45.36, "unit": "%"}, {"measurement": "Number of writhing responses", "setting": "[5]; Dose 125 mg/kg", "value": "18±12"}, {"measurement": "Inhibition rate (%)", "setting": "[5]; Dose 125 mg/kg", "value": 62.89, "unit": "%"}, {"measurement": "effect of inhibiting the number of writhing responses", "setting": "[5]; dose of 125 mg/kg", "value": "very significant effect"}, {"measurement": "dose-effect relationship", "setting": "[5]; [6]", "value": "relatively good dose-effect relationship"}, {"measurement": "inhibition of the writhing effect compared with VX-548", "setting": "[5]; [6]", "value": "better than VX-548"}]}
